Results published in ChEMBL document CHEMBL4385672, “Design, synthesis and biological evaluation of 2-(3,4-dimethoxyphenyl)-6 (1,2,3,6-tetrahydropyridin-4-yl)imidazo[1,2-a]pyridine analogues as antiproliferative agents” (Bioorg Med Chem Lett, 2019).
One block for each molecule: values may come before it. Activity calls are given as the source filed them. The rule behind the calls is not given here.

Experiments:
[1] = system: HeLa; assay: Antiproliferative activity against human HeLa cells at 10 to 100 uM incubated for 48 hrs by MTT assay; format: functional, cell-based
[2] = system: A549; assay: Antiproliferative activity against human A549 cells at 10 to 100 uM incubated for 48 hrs by MTT assay; format: functional, cell-based
[3] = system: B16-F10; assay: Antiproliferative activity against mouse B16F10 cells at 10 to 100 uM incubated for 48 hrs by MTT assay; format: functional, cell-based
[4] = Selectivity index, ratio of IC50 for cytotoxicity in HEK293 cells assessed as reduction in cell viability incubated for 48 hrs by MTT assay to IC50 for antiproliferative activity against mouse B16F10 cells incubated for 48 hrs by MTT assay; format: toxicity, cell-based; details: read-out: Ratio IC50
[5] = system: B16-F10; assay: Antiproliferative activity against mouse B16F10 cells incubated for 48 hrs by MTT assay; format: functional, cell-based; details: B16-F10, 48 h
[6] = system: HEK293; assay: Cytotoxicity in HEK293 cells assessed as reduction in cel viability incubated for 48 hrs by MTT assay; format: cell-based; details: Homo sapiens, HEK293, 48 h
[7] = system: HeLa; assay: Antiproliferative activity against human HeLa cells incubated for 48 hrs by MTT assay; format: functional, cell-based
[8] = system: A549; assay: Antiproliferative activity against human A549 cells incubated for 48 hrs by MTT assay; format: functional, cell-based; details: A549, 48 h
[9] = Selectivity index, ratio of IC50 for cytotoxicity in HEK293 cells assessed as reduction in cell viability incubated for 48 hrs by MTT assay to IC50 for antiproliferative activity against human HeLa cells incubated for 48 hrs by MTT assay; format: toxicity, cell-based; details: read-out: Ratio IC50
[10] = Selectivity index, ratio of IC50 for cytotoxicity in HEK293 cells assessed as reduction in cell viability incubated for 48 hrs by MTT assay to IC50 for antiproliferative activity against human A549 cells incubated for 48 hrs by MTT assay; format: toxicity, cell-based; details: read-out: Ratio IC50
[11] = system: B16-F10; assay: Induction of apoptosis in mouse B16F10 cells assessed as late apoptosis cells level at 7 uM incubated for 48 hrs by Annexin V-FITC and PI staining based flow cytometry (reference value: 0.02 +/- 0.21%); format: functional
[12] = system: B16-F10; assay: Induction of apoptosis in mouse B16F10 cells assessed as early apoptosis cells level at 7 uM incubated for 48 hrs by Annexin V-FITC and PI staining based flow cytometry (reference value: 0.03 +/- 0.013%); format: functional

Structure (SMILES): COc1ccc(-c2cn3cc(C4=CCN(S(=O)(=O)C(F)(F)F)CC4)ccc3n2)cc1OC
- Activity [1]: Active
- Activity [2]: Active
- Activity [3]: Active

Structure (SMILES): COc1ccc(-c2cn3cc(C4=CCN(S(=O)(=O)c5ccc(C)cc5)CC4)ccc3n2)cc1OC
- Activity [1]: Active
- Activity [2]: Active
- Activity [3]: Active

Structure (SMILES): C=CC(=O)N1CC=C(c2ccc3nc(-c4ccc(OC)c(OC)c4)cn3c2)CC1
- Activity [1]: Active
- Activity [2]: Active
- Activity [3]: Active

- IC50 [5]: 19.5 µM
- IC50 [7]: 16 µM
- IC50 [8]: 5.2 µM
Structure (SMILES): COc1ccc(-c2cn3cc(C4=CCN(C(=O)c5cccs5)CC4)ccc3n2)cc1OC
- selectivity ratio at 48 h [4]: 10 to 14
- IC50 [6]: 98.1 µM
- Activity [1]: Active
- Activity [2]: Active
- Activity [3]: Active
- selectivity ratio at 48 h [9]: 10 to 14
- selectivity ratio at 48 h [10]: 10 to 14

Structure (SMILES): COc1ccc(-c2cn3cc(C4=CCN(C(=O)N(C)C)CC4)ccc3n2)cc1OC
- Activity [1]: Active
- Activity [2]: Active
- Activity [3]: Active

- IC50 [5]: 11.1 µM
- IC50 [7]: 9.99 µM
- IC50 [8]: 4.49 µM
Structure (SMILES): COc1ccc(-c2cn3cc(C4=CCN(S(=O)(=O)C5CCCCC5)CC4)ccc3n2)cc1OC
- selectivity ratio at 48 h [4]: 10 to 14
- IC50 [6]: 75 µM
- Activity [1]: Active
- Activity [2]: Active
- Activity [3]: Active
- selectivity ratio at 48 h [9]: 10 to 14
- selectivity ratio at 48 h [10]: 10 to 14

- IC50 [5]: 19.4 µM
- IC50 [7]: 15.8 µM
- IC50 [8]: 9.14 µM
Structure (SMILES): COc1ccc(-c2cn3cc(C4=CCN(C(=O)C5CC5)CC4)ccc3n2)cc1OC
- selectivity ratio at 48 h [4]: 10 to 14
- IC50 [6]: 77.5 µM
- Activity [1]: Active
- Activity [2]: Active
- Activity [3]: Active
- selectivity ratio at 48 h [9]: 10 to 14
- selectivity ratio at 48 h [10]: 10 to 14

- IC50 [5]: 8.08 µM
- IC50 [7]: 8.98 µM
- IC50 [8]: 7.69 µM
Structure (SMILES): COc1ccc(-c2cn3cc(C4=CCN(S(=O)(=O)CCc5ccccc5)CC4)ccc3n2)cc1OC
- selectivity ratio at 48 h [4]: 10 to 14
- IC50 [6]: 70.3 µM
- Activity [1]: Active
- Activity [2]: Active
- Activity [3]: Active
- selectivity ratio at 48 h [9]: 10 to 14
- selectivity ratio at 48 h [10]: 10 to 14

Structure (SMILES): COc1ccc(-c2cn3cc(C4=CCN(S(=O)(=O)c5ccc([N+](=O)[O-])cc5)CC4)ccc3n2)cc1OC
- Activity [1]: Active
- Activity [2]: Active
- Activity [3]: Active

Structure (SMILES): COc1ccc(-c2cn3cc(C4=CCN(S(=O)(=O)c5ccc(C(F)(F)F)cc5)CC4)ccc3n2)cc1OC
- Activity [1]: Active
- Activity [2]: Active
- Activity [3]: Active

Structure (SMILES): COc1ccc(-c2cn3cc(C4=CCN(C(=O)c5ccc(F)cc5)CC4)ccc3n2)cc1OC
- Activity [1]: Active
- Activity [2]: Active
- Activity [3]: Active

Structure (SMILES): COc1ccc(-c2cn3cc(C4=CCN(C(=O)C(F)(F)F)CC4)ccc3n2)cc1OC
- Activity [1]: Active
- Activity [2]: Active
- Activity [3]: Active

- IC50 [5]: 8.11 µM
- IC50 [7]: 7.95 µM
- IC50 [8]: 2.55 µM
Structure (SMILES): COc1ccc(-c2cn3cc(C4=CCN(C(=O)c5ccccc5C(F)(F)F)CC4)ccc3n2)cc1OC
- selectivity ratio at 48 h [4]: 10 to 14
- IC50 [6]: 82.9 µM
- Activity [1]: Active
- Activity [2]: Active
- Activity [3]: Active
- selectivity ratio at 48 h [9]: 10 to 14
- selectivity ratio at 48 h [10]: 10 to 14

Structure (SMILES): COc1ccc(-c2cn3cc(C4=CCN(C(=O)c5cccc(F)c5)CC4)ccc3n2)cc1OC
- Activity [1]: Active
- Activity [2]: Active
- Activity [3]: Active

Structure (SMILES): COc1ccc(-c2cn3cc(C4=CCN(S(=O)(=O)c5ccc(Cl)s5)CC4)ccc3n2)cc1OC
- Activity [1]: Active
- Activity [2]: Active
- Activity [3]: Active

Structure (SMILES): COc1ccc(-c2cn3cc(C4=CCN(C(C)=O)CC4)ccc3n2)cc1OC
- Activity [1]: Active
- Activity [2]: Active
- Activity [3]: Active

- IC50 [5]: 13.2 µM
- IC50 [7]: 12.6 µM
- IC50 [8]: 7.66 µM
Structure (SMILES): COc1ccc(-c2cn3cc(C4=CCN(S(=O)(=O)c5ccccc5)CC4)ccc3n2)cc1OC
- selectivity ratio at 48 h [4]: 10 to 14
- IC50 [6]: 65.6 µM
- Activity [1]: Active
- Activity [2]: Active
- Activity [3]: Active
- selectivity ratio at 48 h [9]: 10 to 14
- selectivity ratio at 48 h [10]: 10 to 14

- IC50 [5]: 7.69 µM
- IC50 [7]: 6.47 µM
- IC50 [8]: 6.47 µM
Structure (SMILES): COc1ccc(-c2cn3cc(C4=CCN(S(=O)(=O)C5CCCC5)CC4)ccc3n2)cc1OC
- Activity [11]: 55.6%
- selectivity ratio at 48 h [4]: 10 to 14
- Activity [12]: 35.4%
- IC50 [6]: 102 µM
- Activity [1]: Active
- Activity [2]: Active
- Activity [3]: Active
- selectivity ratio at 48 h [9]: 10 to 14
- selectivity ratio at 48 h [10]: 10 to 14

Structure (SMILES): COc1ccc(S(=O)(=O)N2CC=C(c3ccc4nc(-c5ccc(OC)c(OC)c5)cn4c3)CC2)cc1
- Activity [1]: Active
- Activity [2]: Active
- Activity [3]: Active

Structure (SMILES): COc1ccc(-c2cn3cc(C4=CCN(S(=O)(=O)c5ccc(Br)s5)CC4)ccc3n2)cc1OC
- Activity [1]: Active
- Activity [2]: Active
- Activity [3]: Active

Structure (SMILES): COc1ccc(-c2cn3cc(C4=CCN(C(=O)COCc5ccccc5)CC4)ccc3n2)cc1OC
- Activity [1]: Active
- Activity [2]: Active
- Activity [3]: Active

Structure (SMILES): COc1ccc(-c2cn3cc(C4=CCN(C(=O)c5ccccn5)CC4)ccc3n2)cc1OC
- Activity [1]: Active
- Activity [2]: Active
- Activity [3]: Active

- IC50 [5]: 7.89 µM
- IC50 [7]: 4.86 µM
- IC50 [8]: 3.69 µM
Structure (SMILES): COc1ccc(-c2cn3cc(C4=CCN(C(=O)c5cccc(C(F)(F)F)c5)CC4)ccc3n2)cc1OC
- selectivity ratio at 48 h [4]: 10 to 14
- IC50 [6]: 68.4 µM
- Activity [1]: Active
- Activity [2]: Active
- Activity [3]: Active
- selectivity ratio at 48 h [9]: 10 to 14
- selectivity ratio at 48 h [10]: 10 to 14

Structure (SMILES): COc1ccc(-c2cn3cc(C4=CCN(S(=O)(=O)c5ccc(C(C)(C)C)cc5)CC4)ccc3n2)cc1OC
- Activity [1]: Active
- Activity [2]: Active
- Activity [3]: Active

Structure (SMILES): COc1ccc(-c2cn3cc(C4=CCN(S(=O)(=O)c5ccc(Cl)cc5)CC4)ccc3n2)cc1OC
- Activity [1]: Active
- Activity [2]: Active
- Activity [3]: Active

Structure (SMILES): COc1ccc(-c2cn3cc(C4=CCN(S(=O)(=O)c5ccccc5[N+](=O)[O-])CC4)ccc3n2)cc1OC
- Activity [1]: Active
- Activity [2]: Active
- Activity [3]: Active

Structure (SMILES): COc1ccc(-c2cn3cc(C4=CCNCC4)ccc3n2)cc1OC
- Activity [1]: Active
- Activity [2]: Active
- Activity [3]: Active

Structure (SMILES): COc1ccc(-c2cn3cc(C4=CCN(C(=O)c5cocn5)CC4)ccc3n2)cc1OC
- Activity [1]: Active
- Activity [2]: Active
- Activity [3]: Active

- IC50 [5]: 34.6 µM
- IC50 [7]: 28.3 µM
- IC50 [8]: 29.1 µM
Structure (SMILES): Nc1ccccc1NC(=O)c1cnccn1

Structure (SMILES): COc1ccc(-c2cn3cc(C4=CCN(C(=O)c5ccc(F)cc5F)CC4)ccc3n2)cc1OC
- Activity [1]: Active
- Activity [2]: Active
- Activity [3]: Active

Structure (SMILES): COc1ccc(-c2cn3cc(C4=CCN(S(=O)(=O)c5ccc(C(C)=O)cc5)CC4)ccc3n2)cc1OC
- Activity [1]: Active
- Activity [2]: Active
- Activity [3]: Active

Structure (SMILES): CCCS(=O)(=O)N1CC=C(c2ccc3nc(-c4ccc(OC)c(OC)c4)cn3c2)CC1
- Activity [1]: Active
- Activity [2]: Active
- Activity [3]: Active

Structure (SMILES): CCS(=O)(=O)N1CC=C(c2ccc3nc(-c4ccc(OC)c(OC)c4)cn3c2)CC1
- Activity [1]: Active
- Activity [2]: Active
- Activity [3]: Active

Structure (SMILES): COc1ccc(-c2cn3cc(C4=CCN(S(=O)(=O)CC(C)C)CC4)ccc3n2)cc1OC
- Activity [1]: Active
- Activity [2]: Active
- Activity [3]: Active

- IC50 [5]: 10.9 µM
- IC50 [7]: 8.06 µM
- IC50 [8]: 7.31 µM
Structure (SMILES): COc1ccc(-c2cn3cc(C4=CCN(C(=O)C5CCCCC5)CC4)ccc3n2)cc1OC
- selectivity ratio at 48 h [4]: 10 to 14
- IC50 [6]: 72.1 µM
- Activity [1]: Active
- Activity [2]: Active
- Activity [3]: Active
- selectivity ratio at 48 h [9]: 10 to 14
- selectivity ratio at 48 h [10]: 10 to 14

Structure (SMILES): COc1ccc(-c2cn3cc(C4=CCN(C(=O)c5ccccc5F)CC4)ccc3n2)cc1OC
- Activity [1]: Active
- Activity [2]: Active
- Activity [3]: Active

Structure (SMILES): COc1ccc(-c2cn3cc(C4=CCN(S(=O)(=O)c5ccc(Br)cc5)CC4)ccc3n2)cc1OC
- Activity [1]: Active
- Activity [2]: Active
- Activity [3]: Active

Structure (SMILES): COc1ccc(-c2cn3cc(C4=CCN(S(=O)(=O)C5CC5)CC4)ccc3n2)cc1OC
- Activity [1]: Active
- Activity [2]: Active
- Activity [3]: Active

Structure (SMILES): COc1ccc(-c2cn3cc(C4=CCN(C(=O)c5ccco5)CC4)ccc3n2)cc1OC
- Activity [1]: Active
- Activity [2]: Active
- Activity [3]: Active

Structure (SMILES): COc1ccc(-c2cn3cc(C4=CCN(S(=O)(=O)c5ccc(F)cc5)CC4)ccc3n2)cc1OC
- Activity [1]: Active
- Activity [2]: Active
- Activity [3]: Active
